Assay results reported in patent US11096985B2, “Antimicrobial peptides, their variants and uses” (priority 2015, dated 2021).
Where a SMILES comes first, the peptide text is derived from it. [ ]: non-standard residue; d: D form.

Columns and labels:
[1] = test system: clinical strains of Proteus mirabilis; assay: MIC, clinical strains of Proteus mirabilis; type: cell-based; set-up: unit: µg/mL; settings: microdilution, Muller Hinton broth-cation adjusted, 0.02% BSA, 0.2% acetic acid
Outline: (§1)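 MH broth; 5.0×10^5 cfu/ml; peptides 0.125–128 μg/ml; 37° C., 20–24 h; visual no-growth endpoint. Fungal MICs in potato dextrose broth.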

[2] = test system: clinical strains of Pseudomonas aeruginosa; assay: MIC, clinical strains of P. aeruginosa; type: cell-based; set-up: unit: μg/ml; settings: microdilution, Muller Hinton broth-cation adjusted, 0.02% BSA, 0.2% acetic acid
Outline: as §1

[3] = test system: clinical strains of Candida albicans; assay: MIC, clinical yeast strains, Candida albicans; type: cell-based; set-up: unit: μg/ml
Outline: as §1

[4] = test system: clinical strains of Klebsiella pneumoniae; assay: MIC, clinical strains of K. pneumoniae; type: cell-based; set-up: unit: μg/ml; settings: microdilution, Muller Hinton broth-cation adjusted, 0.02% BSA, 0.2% acetic acid
Outline: as §1

[5] = test system: clinical strains of Serratia marcescens; assay: MIC, clinical strains of Serratia marcescens; type: cell-based; set-up: unit: µg/mL; settings: microdilution, Muller Hinton broth-cation adjusted, 0.02% BSA, 0.2% acetic acid
Outline: as §1

[6] = test system: clinical strains of Enterobacter cloacae; assay: MIC, clinical strains of Enterobacter cloacae; type: cell-based; set-up: unit: μg/ml; settings: microdilution, Muller Hinton broth-cation adjusted, 0.02% BSA, 0.2% acetic acid
Outline: as §1

[7] = test system: clinical strains of C. glabrata; assay: MIC, clinical yeast strains, C. glabrata; type: cell-based, Candida glabrata; set-up: unit: μg/ml
Outline: as §1

[8] = test system: clinical strains of Streptococcus pneumoniae; assay: MIC, clinical strains of Streptococcus pneumoniae; type: cell-based; set-up: unit: µg/mL; settings: microdilution, Muller Hinton broth-cation adjusted, 0.02% BSA, 0.2% acetic acid
Outline: as §1

[9] = test system: clinical strains of Escherichia coli; assay: MIC, clinical strains of E. coli; type: cell-based; set-up: unit: μg/ml; settings: microdilution, Muller Hinton broth-cation adjusted, 0.02% BSA, 0.2% acetic acid
Outline: as §1

[10] = test system: clinical strains of C. quillermondiae; assay: MIC, clinical yeast strains, C. quillermondiae; type: cell-based; settings: C. quillermondiae clinical yeast strain 1
Outline: as §1

[11] = test system: clinical strains of Staphylococcus aureus; assay: MIC, clinical strains of S. aureus; type: cell-based; set-up: unit: μg/ml; settings: microdilution, Muller Hinton broth-cation adjusted, 0.02% BSA, 0.2% acetic acid
Outline: as §1

[12] = test system: clinical strains of C. parapsilosis; assay: MIC, clinical yeast strains, C. parapsilosis; type: cell-based, Candida parapsilosis; set-up: unit: μg/ml
Outline: as §1

[13] = Proteus mirabilis clinical strain 1
[14] = Proteus mirabilis clinical strain 2
[15] = Proteus mirabilis clinical strain 3
[16] = Proteus mirabilis clinical strain 4
[17] = Proteus mirabilis clinical strain 5
[18] = Pseudomonas aeruginosa clinical strain 1
[19] = Pseudomonas aeruginosa clinical strain 2
[20] = Pseudomonas aeruginosa clinical strain 3
[21] = Pseudomonas aeruginosa clinical strain 4
[22] = Pseudomonas aeruginosa clinical strain 5
[23] = Candida albicans clinical yeast strain 1
[24] = Candida albicans clinical yeast strain 2
[25] = Candida albicans clinical yeast strain 3
[26] = Candida albicans clinical yeast strain 4
[27] = Candida albicans clinical yeast strain 5
[28] = Klebsiella pneumoniae clinical strain 1
[29] = Klebsiella pneumoniae clinical strain 2
[30] = Klebsiella pneumoniae clinical strain 3
[31] = Klebsiella pneumoniae clinical strain 4
[32] = Klebsiella pneumoniae clinical strain 5
[33] = Serratia marcescens clinical strain 1
[34] = Serratia marcescens clinical strain 2
[35] = Serratia marcescens clinical strain 3
[36] = Serratia marcescens clinical strain 4
[37] = Serratia marcescens clinical strain 5
[38] = Enterobacter cloacae clinical strain 1
[39] = Enterobacter cloacae clinical strain 2
[40] = Enterobacter cloacae clinical strain 3
[41] = Enterobacter cloacae clinical strain 4
[42] = Enterobacter cloacae clinical strain 5
[43] = C. glabrata clinical yeast strain 1
[44] = C. glabrata clinical yeast strain 2
[45] = C. glabrata clinical yeast strain 3
[46] = C. glabrata clinical yeast strain 4
[47] = Streptococcus pneumoniae clinical strain 1
[48] = Streptococcus pneumoniae clinical strain 2
[49] = Streptococcus pneumoniae clinical strain 3
[50] = Streptococcus pneumoniae clinical strain 4
[51] = Streptococcus pneumoniae clinical strain 5
[52] = Escherichia coli clinical strain 1
[53] = Escherichia coli clinical strain 2
[54] = Escherichia coli clinical strain 3
[55] = Escherichia coli clinical strain 4
[56] = Escherichia coli clinical strain 5
[57] = Staphylococcus aureus clinical strain 1
[58] = Staphylococcus aureus clinical strain 2
[59] = Staphylococcus aureus clinical strain 3
[60] = Staphylococcus aureus clinical strain 4
[61] = Staphylococcus aureus clinical strain 5
[62] = C. parapsilosis clinical yeast strain 1
[63] = C. parapsilosis clinical yeast strain 2
[64] = C. parapsilosis clinical yeast strain 3
[65] = C. parapsilosis clinical yeast strain 4

With CC(C)C[C@@H](NC(=O)[C@H](N)CCCNC(=N)N)C(=O)N[C@H](CCCCN)C(=O)N[C@H](Cc1c[nH]c2ccccc12)C(=O)N[C@H](Cc1ccccc1)C(=O)N[C@H](Cc1c[nH]c2ccccc12)C(=O)N[C@H](CC(C)C)C(=O)N[C@H](Cc1ccccc1)C(=O)N[C@H](CCCNC(=N)N)C(=O)N[C@H](CCCCN)C(=O)N[C@H](CCCNC(=N)N)C(=O)O [Chain307D] (H-[dR][dL][dK][dW][dF][dW][dL][dF][dR][dK][dR]-OH) the Minimum inhibitory concentration [1, 13] was over 128, the Minimum inhibitory concentration [1, 14] was 128 and the Minimum inhibitory concentration [1, 15] was 128. The Minimum inhibitory concentration [1, 16] was over 128, the Minimum inhibitory concentration [1, 17] was over 128 and the Minimum inhibitory concentration [2, 18] was 16. The Minimum inhibitory concentration [2, 19] was 16, the Minimum inhibitory concentration [2, 20] was 16 and the Minimum inhibitory concentration [2, 21] was 8. For the same compound, the Minimum inhibitory concentration [2, 22] was 8, the Minimum inhibitory concentration [3, 23] was 16 and the Minimum inhibitory concentration [3, 24] was 16. For the same compound, the Minimum inhibitory concentration [3, 25] was 16, the Minimum inhibitory concentration [3, 26] was 16 and the Minimum inhibitory concentration [3, 27] was 16. The Minimum inhibitory concentration [4, 28] was 8, the Minimum inhibitory concentration [4, 29] was 8 and the Minimum inhibitory concentration [4, 30] was 16. It also gave a Minimum inhibitory concentration [4, 31] of 16, a Minimum inhibitory concentration [4, 32] of 4 and a Minimum inhibitory concentration [5, 33] of over 128. It also gave a Minimum inhibitory concentration [5, 34] of over 128, a Minimum inhibitory concentration [5, 35] of 128 and a Minimum inhibitory concentration [5, 36] of over 128. For the same compound, the Minimum inhibitory concentration [5, 37] was over 128, the Minimum inhibitory concentration [6, 38] was 4 and the Minimum inhibitory concentration [6, 39] was 8. The Minimum inhibitory concentration [6, 40] was 4, the Minimum inhibitory concentration [6, 41] was 4 and the Minimum inhibitory concentration [6, 42] was 4. For the same compound, the Minimum inhibitory concentration [7, 43] was 8, the Minimum inhibitory concentration [7, 44] was 16 and the Minimum inhibitory concentration [7, 45] was 8. It also gave a Minimum inhibitory concentration [7, 46] of 16, a Minimum inhibitory concentration [8, 47] of 4 and a Minimum inhibitory concentration [8, 48] of 4. The Minimum inhibitory concentration [8, 49] was 4, the Minimum inhibitory concentration [8, 50] was 2 and the Minimum inhibitory concentration [8, 51] was 2. The Minimum inhibitory concentration [9, 52] was 4, the Minimum inhibitory concentration [9, 53] was 4 and the Minimum inhibitory concentration [9, 54] was 4. For the same compound, the Minimum inhibitory concentration [9, 55] was 2, the Minimum inhibitory concentration [9, 56] was 4 and the Minimum inhibitory concentration [10] was 4. It also gave a Minimum inhibitory concentration [11, 57] of 2, a Minimum inhibitory concentration [11, 58] of 2 and a Minimum inhibitory concentration [11, 59] of 2. It also gave a Minimum inhibitory concentration [11, 60] of 2, a Minimum inhibitory concentration [11, 61] of 2 and a Minimum inhibitory concentration [12, 62] of 16. It also gave a Minimum inhibitory concentration [12, 63] of 8, a Minimum inhibitory concentration [12, 64] of 8 and a Minimum inhibitory concentration [12, 65] of 8.

Compound CC(C)C[C@@H](NC(=O)[C@@H](CCCCN)NC(=O)[C@@H](CCCCN)NC(=O)[C@@H](Cc1ccccc1)NC(=O)[C@@H](CC(C)C)NC(=O)[C@@H](Cc1c[nH]c2ccccc12)NC(=O)[C@@H](CCCNC(=N)N)NC(=O)[C@@H](Cc1c[nH]c2ccccc12)NC(=O)[C@@H](CCCCN)NC(=O)[C@@H](CCCNC(=N)N)NC(=O)[C@H](N)CCCCN)C(=O)O [Chain310D] (H-[dK][dR][dK][dW][dR][dW][dL][dF][dK][dK][dL]-OH) has a Minimum inhibitory concentration [1, 13] of over 128, a Minimum inhibitory concentration [1, 14] of over 128 and a Minimum inhibitory concentration [1, 15] of over 128. For the same compound, the Minimum inhibitory concentration [1, 16] was over 128, the Minimum inhibitory concentration [1, 17] was over 128 and the Minimum inhibitory concentration [2, 18] was 8. It also gave a Minimum inhibitory concentration [2, 19] of 16, a Minimum inhibitory concentration [2, 20] of 16 and a Minimum inhibitory concentration [2, 21] of 8. The Minimum inhibitory concentration [2, 22] was 4, the Minimum inhibitory concentration [3, 23] was 16 and the Minimum inhibitory concentration [3, 24] was 16. The Minimum inhibitory concentration [3, 25] was 16, the Minimum inhibitory concentration [3, 26] was 16 and the Minimum inhibitory concentration [3, 27] was 16. The Minimum inhibitory concentration [4, 28] was 64, the Minimum inhibitory concentration [4, 29] was 64 and the Minimum inhibitory concentration [4, 30] was 128. The Minimum inhibitory concentration [4, 31] was 64, the Minimum inhibitory concentration [4, 32] was 32 and the Minimum inhibitory concentration [5, 33] was over 128. The Minimum inhibitory concentration [5, 34] was over 128, the Minimum inhibitory concentration [5, 35] was over 128 and the Minimum inhibitory concentration [5, 36] was over 128. It also gave a Minimum inhibitory concentration [5, 37] of over 128, a Minimum inhibitory concentration [6, 38] of 128 and a Minimum inhibitory concentration [6, 39] of 64. The Minimum inhibitory concentration [6, 40] was 16, the Minimum inhibitory concentration [6, 41] was 8 and the Minimum inhibitory concentration [6, 42] was 16. For the same compound, the Minimum inhibitory concentration [7, 43] was 16, the Minimum inhibitory concentration [7, 44] was 16 and the Minimum inhibitory concentration [7, 45] was 128. For the same compound, the Minimum inhibitory concentration [7, 46] was 128, the Minimum inhibitory concentration [8, 47] was 128 and the Minimum inhibitory concentration [8, 48] was 128. The Minimum inhibitory concentration [8, 49] was 128, the Minimum inhibitory concentration [8, 50] was 128 and the Minimum inhibitory concentration [8, 51] was 64. For the same compound, the Minimum inhibitory concentration [9, 52] was 4, the Minimum inhibitory concentration [9, 53] was 32 and the Minimum inhibitory concentration [9, 54] was 16. It also gave a Minimum inhibitory concentration [9, 55] of 16, a Minimum inhibitory concentration [9, 56] of 16 and a Minimum inhibitory concentration [10] of 8. The Minimum inhibitory concentration [11, 57] was 8, the Minimum inhibitory concentration [11, 58] was 16 and the Minimum inhibitory concentration [11, 59] was 8. It also gave a Minimum inhibitory concentration [11, 60] of 8, a Minimum inhibitory concentration [11, 61] of 4 and a Minimum inhibitory concentration [12, 62] of 64. For the same compound, the Minimum inhibitory concentration [12, 63] was 64, the Minimum inhibitory concentration [12, 64] was 64 and the Minimum inhibitory concentration [12, 65] was 16.
